Measurements reported in patent US20060167229A1, “Biologically active peptide conjugates” (priority 2002, published 2006).
Marks after values point to notes of the source that are not given here. Ends that are not written are not given here.

How the values were obtained:
[1] = tested on: NK cell; assay: NK cell activity in mice with ascitic fluid type liver cancer H22; type: in vivo, BALB/c mice; settings: saline 24.0 ± 8.2
Experimental: Healthy BALB/c mice were randomised into peptide group, rmIFN-γ group, rhIL-2 group, and saline group, 15 mice per group, and prepared into H22 carrying mice model as described in section Method 3. After implantation of the cancer cells, the test substances were administered for 15 days, the mice were killed by cervical dislocation. The spleen was isolated aseptically and manually dispersed in cold D-Hank's solution using an injection needle. The dispersed cell suspension was further sieved through a 100-gauge 150 μm diameter stainless steel sieve. After centrifugation at 200 g for 10 minutes, the supernatant was discarded. The cell pellet was re-suspended in 10 volume of Tris-NH4Cl buffer and then kept standing still for 10 minutes at room temperature. The suspended cells were collected by centrifugation at 150 g for 10 minutes. The cells were washed 2-4 times with cold D-Hank's solution by re-suspending and collecting by centrifugation with condition as described above. The washed cells were then diluted to the desired cell densities by RPMI-1640 culture medium, containing 10% fetal bovine serum.
Mice spleen cells were prepared to 4×10^6/ml as described in section 4.1 above. Target cells YAC-1 were brought to log phase and adjusted to 1×10^5/ml. Using a 96 wells cell culture plate, 100 μl mouse spleen cells and 100 μl culture medium were added to the control well containing only the spleen cells; 100 μl target cells and 100 μl culture medium were added to the control well containing only target cells; 100 μl mouse spleen cells and 100 μl target cells were added to the NK activity assay well. Three parallel sets of the above were prepared per mouse. After that, the 96 wells cell culture plates were incubated for 4 hrs at 37° C., 5% CO2.
Samples were centrifuged at 150 g for 10 minutes to collect the cells. The supernatant was discarded and 50 μl/well MTT of 1 mg/ml was added. The reaction-mixture was then shaken for 2 minutes, and incubated at 37° C., 5% CO2 for 4 hours. The supernatant was discarded after centrifugation at 150 g for 10 minutes. 120 μl 40 mM HCl-2-propanol was added and shaken for 3 minutes. An ELISA reader was used to obtain OD570 nm of each well referenced at 630 nm.
The NK cell activity index of each mouse was obtained by first deriving the average OD of the three parallel wells of each combination, then applying this average OD to the following formula: NK cell activity index=[1−(average OD of spleen and target cell well−average OD of spleen cell only well)÷(average OD of target cell only well)]×100% 5. The Effect of Peptides on the Survival of DBA/2 Mice with Transplanted L1210 Leukemia

[2] = tested on: Sheep red blood cells (SRBC); assay: Humoral immunity (SRBC hemolysis index) of mice bearing transplanted B16 melanoma; type: in vivo, C57BL/6 mice; set-up: key: index = (OD540 sample ÷ reference OD540) × 500; settings: saline 19.0 ± 9.1
Experimental: (§1) Intraperitoneal injection, once per day. […] Treatment of all groups with testing substance lasted for 30 days or until the animal died unless otherwise specified.
Stock B16 mouse melanoma cells were incubated in DMEM/F12 medium supplemented with 10% fetal bovine serum, 37° C./5% CO2 for 72 hrs, then washed 3-4 times with Hank's solution. The cell concentration was adjusted to 1×10^5 per ml with Hank's solution and 0.1 ml of the cell suspension was injected via the tail vein into the testing mice to generate the B16 melanoma bearing animal model. Treatment with test substance started as described in section Method 1.
Sheep red blood cells (SRBC) were prepared by collecting blood from the cervical vein and put into a sterile flask with glass beads. The flask was shaken for 3 minutes and the blood then mixed with Alsever solution (glucose 2.05 g, NaCl 0.4 g, […] 0.8 g, adjust to 100 ml with distilled water) and stored at 4° C. Immediately before use, samples were centrifuged at 130 g, 5 minutes to collect the SRBC. The cells were washed two times by re-suspension and centrifugation in normal saline. Then the cell pellet was collected by centrifugation at 180 g for 10 minutes and re-suspended in saline to make the final working SRBC suspension, 2% (v/v).
Complement was prepared by adding 10 volumes of fresh Cavy serum into one volume centrifuge packed SRBC, and then gently shaken for 30 minutes at 4° C. The SRBC was removed by centrifugation at 200 g for 10 minutes. 10 volumes of normal saline were added to obtain the working complement solution.
On the testing animals, on the 27th date of test substance treatment, 0.2 ml of the working SRBC cell suspension was injected into each animal to raise antibody. On the day after the last test substance administration, blood was collected from the eye canthus and left at room temperature for one hour for serum exudation. After centrifugation at 200 g for 10 minutes, the collected serum was diluted by 500 times with normal saline.
To 1 ml diluted mouse serum of each mouse, 0.5 ml SRBC suspension was added. Ice cold. Then 1 ml working complement solution was added and incubated at 37° C. water bath for 10 minutes. Reactions were terminated by ice cold. Samples were then centrifuged at 200 g for 10 minutes to obtain the supernatant.
To 1 ml of this supernatant, 3 ml Drabkin solution was added and left at room temperature for 10 minutes. OD540 nm was obtained.
Reference OD540 nm was obtained by mixing 0.25 ml SRBC suspension with Drabkin solution to 4 ml and placed at room temperature for 10 minutes before OD540 nm was taken. Hemolysis index=(OD540 nm of test sample÷reference OD540 nm)×500 6.2 After the Humoral Immunity Study, the Mice were Killed by Cervical Vertebra Dislocation. Postmortem Examination of the Animals was Performed. The Pathological Changes were Recorded, and the Numbers of Melanoma Lung Metastasis Foci Were Counted. Results

[3] = tested on: L1210 leukemia; assay: Survival of mice with transplanted L1210 leukemia; type: in vivo, DBA/2 mice; settings: for Survival days: saline 16.6 ± 5.6
Experimental: as §1
Stock L1210 cells were incubated in DMEM/F12 medium supplemented with 10% fetal bovine serum, 37° C./5% CO2 for 72 hrs, then washed 3-4 times with Hank's solution, and adjusted to […]. 0.1 ml of the cell suspension was implanted into the abdominal cavity of several healthy DBA mice for 6-8 days. The mice were then killed by cervical vertebra dislocation and their ascitic fluid collected aseptically. The cell concentration of the collected ascitic fluid was adjusted to 1×10^5 per ml with Hank's solution. 0.1 ml of the cell suspension was implanted into each of the testing animal and the survival data of the animals recorded. Treatment started in the testing animals as described in section Method 1. Mean survival day was obtained by the Kaplan-meier method in the Survival option of the SPSS software. If the animal survived longer than the experiment, the survival days was entered as the duration of the experiment. The survival index was calculated according to the following formula: Survival index=(mean survival days of treatment group−mean survival days of control group)÷mean survival days of control group 6. The Effect of Peptides on the Humoral Immunity of C57BL/6 Mice Bearing Transplanted B16 Melanoma and that on the Metastatic Potential of the Inoculated Melanoma Cells

[4] = dose 0.5 μg/kg i.p. once per day
[5] = controls: IL-2, IFN-γ 3 × 10^5 IU/kg, cyclophosphamide 20 mg/kg

Molecule | Hemolysis index ([2]; dose 0.5 μg/kg) | Hemolysis index ([2]; dose 5 μg/kg) | Hemolysis index ([2]; dose 50 μg/kg) | Hemolysis index ([2]; dose 500 μg/kg) | other results
FNFVPP [CMS003] | 61.6 ± 26.9*^$ | 37.2 ± 15.9*^$ | 38.7 ± 13.5*^$ | 35.9 ± 13.0*^$ | NK activity index (%) ([1]; dose 500 μg/kg): 37.9 ± 14.5*^^$ %
IGMESAGIHETTY [CMS016] | – | – | – | 43.3 ± 29.9 | –
KAVGHLDDLPGAL [CMS008] | 42.7 ± 18.4*^$ | 38.9 ± 12.0*^$ | 37.1 ± 16.7*^$ | 50.1 ± 17.8*^$ | –
PTTKTYFPHF [CMS001] | 51.0 ± 16.2*^$ | 41.3 ± 17.7*^$ | 45.0 ± 31.9*^$ | 36.0 ± 10.2*^$ | –
Phe Gln Gln Gln (FQQQ; printed: Phe Gln Gln Gln) [CMS032] | – | – | – | – | NK activity index (%) ([1]; dose 5 μg/kg): 52.6 ± 12.5*^^$& %; NK activity index (%) ([1]; dose 50 μg/kg): 41.0 ± 18.7*^^$& %
Phe Val Asn Asp (FVND; listed as Sus scrofa) [CMS035] | – | 38.9 ± 21.2*^$ | 44.7 ± 22.7*^$ | 40.5 ± 25.8 | Survival index (%) [3, 4]: 76.1%; Survival days [3, 4]: 29.3 ± 15.4 days
Pro Gln Asn Phe (PQNF; printed: Pro Gln Asn Phe) [CMS034] | 50.8 ± 18.4*^$ | 43.0 ± 11.7*^$ | 30.2 ± 10.9 | – | NK activity index (%) ([1]; dose 50 μg/kg): 57.3 ± 17.9*^^$& %
RVAPQQHPTL [CMS011] | 32.0 ± 14.7 | – | – | 34.4 ± 19.4 | –
Tyr Ser Leu (YSL; listed as Sus scrofa) [CMS024] | 43.0 ± 10.7*^$ | 42.2 ± 11.8*^$ | 27.8 ± 9.1 | 30.1 ± 10.0 | NK activity index (%) ([1]; dose 0.5 μg/kg): 39.3 ± 18.7*^$ %; NK activity index (%) ([1]; dose 5 μg/kg): 34.9 ± 12.1*^^$ %; NK activity index (%) ([1]; dose 50 μg/kg): 43.6 ± 13.9*^^$& %
VAPEEHPTLLTEAPLNPK [CMS010] | 34.9 ± 10.5*^$ | 51.0 ± 14.6*^$ | 39.6 ± 7.7*^$ | 50.1 ± 16.7*^$ | –
VGMGQKDSY | 42.0 ± 12.0*^$ | 35.4 ± 15.1*^$ | 28.3 ± 7.6 | – | Survival index (%) [3, 4]: 26.8%; Survival days [3, 4]: 21.1 ± 5.8 days
IFN-γ: recombinant mouse IFN-γ (rmIFN-γ), Beijing Biotech Inc.; positive control (protein, UniProt P01580 23-155, looked up) Interferon gamma: HGTVIESLESLNNYFNSSGIDVEEKSLFLDIWRNWQKDGDMKILQSQIISFYLRLFEVLKDNQAISNNISVIESHLITTFFSNSKAKKDAFMSIAKFEVNNPQVQRQAFNELIRVVHQLLPESSLRKRKRSRC | – | – | – | – | NK activity index (%) [1, 5]: 20.9 ± 3.3%; Hemolysis index ([2]; controls: rhIL-2, rmIFN-γ 3 × 10^5 IU/kg, cyclophosphamide 20 mg/kg): 60.5 ± 17.4; Survival days [3, 5]: 15.6 ± 2.2 days
